Measurements taken from patent US20090317466A1, “Fixed dose pharmaceutical composition comprising hyroxyurea and didanosine” (priority 2008, published 2009).

Assay: Stability of hydroxyurea on removal of citric acid from the composition
Type: physicochemical
Settings: removal of the stabilizer citric acid from the composition
Source text: The commercially available hydroxyurea tablets contain citric acid.

stability of hydroxyurea: not significantly affected
Compound: NC(=O)NO [hydroxyurea]
